Holding throughout (assay type): functional
Assay [1] concerns Helminthosporium. The assay is described as follows: Antifungal activity against Helminthosporium sp. assessed as growth inhibition at 1 mg/ml at 25 degC by agar well diffusion bioassay. The note with it: read-out: GI.
The test system of assay [2] is Pestalotiopsis sp. Kind of assay: Antifungal activity against Pestalotiopsis sp. assessed as growth inhibition at 2 mg/ml at 25 degC by agar well diffusion bioassay. The note with it: read-out: GI. (In general: Agar diffusion results depend on both activity and mobility in agar.)
Assay [3] relates to Alternaria alternata. Kind of assay: Antifungal activity against Alternaria alternata assessed as growth inhibition at 1 mg/ml at 25 degC by agar well diffusion bioassay. The note with it: read-out: GI.
Assay [4] relates to Pestalotiopsis sp. The assay is described as follows: Antifungal activity against Pestalotiopsis sp. assessed as growth inhibition at 3 mg/ml at 25 degC by agar well diffusion bioassay. The note with it: read-out: GI.
In assay [5] the test system is Helminthosporium. The assay is described as follows: Antifungal activity against Helminthosporium sp. assessed as growth inhibition at 4 mg/ml at 25 degC by agar well diffusion bioassay. The note with it: read-out: GI.
The test system of assay [6] is Colletotrichum acutatum. Kind of assay: Antifungal activity against Colletotrichum acutatum assessed as growth inhibition at 1 mg/ml at 25 degC by agar well diffusion bioassay. The note with it: read-out: GI.
Assay [7] relates to Helminthosporium. The assay is described as follows: Antifungal activity against Helminthosporium sp. assessed as growth inhibition at 25 degC after 48 hr by two-fold broth macrodilution method.
The subject of assay [8] is Pestalotiopsis sp. The assay is described as follows: Antifungal activity against Pestalotiopsis sp. assessed as growth inhibition at 4 mg/ml at 25 degC by agar well diffusion bioassay. The note with it: read-out: GI.
In assay [9] the test system is Pestalotiopsis sp. Kind of assay: Antifungal activity against Pestalotiopsis sp. assessed as growth inhibition at 25 degC after 48 hr by two-fold broth macrodilution method.
Assay [10] relates to Colletotrichum acutatum. Kind of assay: Antifungal activity against Colletotrichum acutatum assessed as growth inhibition at 4 mg/ml at 25 degC by agar well diffusion bioassay. The note with it: read-out: GI.
In assay [11] the test system is Colletotrichum acutatum. The assay is described as follows: Antifungal activity against Colletotrichum acutatum assessed as growth inhibition at 3 mg/ml at 25 degC by agar well diffusion bioassay. The note with it: read-out: GI.
Assay [12] has as its system Alternaria alternata. Kind of assay: Antifungal activity against Alternaria alternata assessed as growth inhibition at 2 mg/ml at 25 degC by agar well diffusion bioassay. The note with it: read-out: GI.
Assay [13] relates to Pestalotiopsis sp. Kind of assay: Antifungal activity against Pestalotiopsis sp. assessed as growth inhibition at 1 mg/ml at 25 degC by agar well diffusion bioassay. The note with it: read-out: GI.
In assay [14] the test system is Alternaria alternata. The assay is described as follows: Antifungal activity against Alternaria alternata assessed as growth inhibition at 3 mg/ml at 25 degC by agar well diffusion bioassay. The note with it: read-out: GI.
The test system of assay [15] is Helminthosporium. The assay is described as follows: Antifungal activity against Helminthosporium sp. assessed as growth inhibition at 2 mg/ml at 25 degC by agar well diffusion bioassay. The note with it: read-out: GI.
In assay [16] the test system is Colletotrichum acutatum. Kind of assay: Antifungal activity against Colletotrichum acutatum assessed as growth inhibition at 2 mg/ml at 25 degC by agar well diffusion bioassay. The note with it: read-out: GI.
For assay [17], the system named is Helminthosporium. Kind of assay: Antifungal activity against Helminthosporium sp. assessed as growth inhibition at 3 mg/ml at 25 degC by agar well diffusion bioassay. The note with it: read-out: GI.
The subject of assay [18] is Alternaria alternata. Kind of assay: Antifungal activity against Alternaria alternata assessed as growth inhibition at 4 mg/ml at 25 degC by agar well diffusion bioassay. The note with it: read-out: GI.
The subject of assay [19] is Colletotrichum acutatum. The assay is described as follows: Antifungal activity against Colletotrichum acutatum assessed as growth inhibition at 25 degC after 48 hr by two-fold broth macrodilution method.
The subject of assay [20] is Alternaria alternata. Kind of assay: Antifungal activity against Alternaria alternata assessed as growth inhibition at 25 degC after 48 hr by two-fold broth macrodilution method.

The values below come from ChEMBL document CHEMBL3045986, “Antifungal activity of prenylated flavonoids isolated from Tephrosia apollinea L. against four phytopathogenic fungi” (2013).

Molecules are shown by their SMILES. Converted amounts (≈) assume the structure as drawn.

As a reminder, the MIC is the lowest concentration found to suppress growth. In the case of `CC(=O)O[C@@H]1C(C)(C)OC(=O)[C@]12COc1ccc3c(=O)cc(-c4ccccc4)oc3c12` [(+)-GLABRATEPHRIN], the inhibition of growth at 1000 µg/mL in assay [1] worked out at 13.9%; in assay [3], 5.3%; in [6], 16.1%; in [13], 8%. The inhibition of growth at 2000 µg/mL in assay [2] was 11.8%; in assay [12], 10%; in assay [15], 11.6%; in [16] it was 26.4%. In addition, the inhibition of growth at 3000 µg/mL was 20.8% in assay [4], 32.6% in assay [11], 17% in assay [14] and 23.3% in [17]. The inhibition of growth at 4000 µg/mL in assay [5] worked out at 37.8%; in [8] it was 31.9%; in [10], 46.4%; in [18], 24.1%. The MIC in assay [7] is 250 µg/mL (≈ 595 µM); in [9], 500 µg/mL (≈ 1190 µM); in [19] it was 250 µg/mL (≈ 595 µM); in assay [20], 500 µg/mL (≈ 1190 µM).
Consider `COC(=O)Nc1nc2ccccc2[nH]1` [CARBENDAZIM], for which the inhibition of growth at 1000 µg/mL in [1] is 44.2%; in assay [3] it was 43.1%; in assay [6] it was 50.6%; in assay [13], 47.7%. The inhibition of growth at 2000 µg/mL is 61.3% in assay [2], 56.7% in assay [12], 61.1% in assay [15] and 60.3% in [16]. The inhibition of growth at 3000 µg/mL was 68.4% in assay [4], 73.9% in [11], 63% in assay [14] and 66.3% in assay [17]. Further, the inhibition of growth at 4000 µg/mL in assay [5] was found to be 79%; in assay [8], 70.6%; in assay [10], 78.9%; in [18] it was 67.8%. Also, the MIC in [7] came to 70 µg/mL (≈ 366 µM); in assay [9] it was 70 µg/mL (≈ 366 µM); in assay [19], 70 µg/mL (≈ 366 µM); in [20], 125 µg/mL (≈ 654 µM).
`CC(=O)O[C@@H]1C(C)(C)OC(=O)[C@@]12COc1ccc3c(=O)cc(-c4ccccc4)oc3c12` [ISOGLABRATEPHRIN]: the inhibition of growth at 1000 µg/mL in [1] amounted to 7.4%; in assay [3], 3.2%; in [6] it was 14.4%; in assay [13], 6.3%. In addition, the inhibition of growth at 2000 µg/mL was found to be 14.4% in assay [2], 8.4% in [12], 16.3% in assay [15] and 25.3% in assay [16]. For the same molecule, the inhibition of growth at 3000 µg/mL in assay [4] came out at 17%; in [11], 37%; in assay [14], 10.7%; in assay [17], 28.9%. Moreover, the inhibition of growth at 4000 µg/mL in assay [5] stood at 32.6%; in [8] it was 27.5%; in [10] it was 42.9%; in [18], 16.1%. Further, the minimum inhibitory concentration (MIC) in assay [7] worked out at 1000 µg/mL (≈ 2380 µM); in assay [9], 1000 µg/mL (≈ 2380 µM); in [19], 250 µg/mL (≈ 595 µM); in assay [20], 1000 µg/mL (≈ 2380 µM).
In the case of `COc1ccc2c(=O)cc(-c3ccccc3)oc2c1/C=C/C(C)(C)O` [LANCEOLATIN-A], the inhibition of growth at 1000 µg/mL in [1] stood at 4.1%; in assay [3] it was 3.3%; in [6], 10%; in [13], 8.4%. Moreover, the inhibition of growth at 2000 µg/mL in [2] was determined as 16.3%; in assay [12], 6.6%; in assay [15] it was 7.7%; in [16] it was 15.2%. Also, the inhibition of growth at 3000 µg/mL came out at 23.8% in assay [4], 22.6% in assay [11], 8.1% in [14] and 10.7% in assay [17]. For the same molecule, the inhibition of growth at 4000 µg/mL in assay [5] worked out at 16%; in [8], 29.7%; in [10] it was 32.6%; in assay [18], 14.1%. In addition, the MIC in assay [7] was 500 µg/mL (≈ 1490 µM); in assay [9], 500 µg/mL (≈ 1490 µM); in assay [19], 500 µg/mL (≈ 1490 µM); in assay [20] it was 1000 µg/mL (≈ 2970 µM).
On to `CC(=O)OC(C1COc2ccc3c(=O)cc(-c4ccccc4)oc3c21)C(C)(C)O` (stereo not given) [TEPHROAPOLLIN-F], for which the inhibition of growth at 1000 µg/mL came to 18% in assay [1], 11.9% in assay [3], 23.3% in [6] and 21.7% in [13]. The inhibition of growth at 2000 µg/mL in assay [2] turned out to be 26.1%; in assay [12] it was 16%; in assay [15], 24.6%; in assay [16], 31.9%. For the same molecule, the inhibition of growth at 3000 µg/mL amounted to 45.1% in assay [4], 40.3% in [11], 23.3% in assay [14] and 36.3% in [17]. In addition, the inhibition of growth at 4000 µg/mL in [5] is 46.5%; in assay [8], 51.7%; in assay [10], 58.3%; in assay [18] it was 32.8%. Also, the MIC in assay [7] came out at 250 µg/mL (≈ 634 µM); in assay [9], 250 µg/mL (≈ 634 µM); in assay [19] it was 125 µg/mL (≈ 317 µM); in assay [20], 500 µg/mL (≈ 1270 µM).
